Columns and labels:
[1] = 101 kPa, Liquid; for viscosity: Capillary tube (Ostwald / Ubbelohde) method; for mass density: Vibrating tube method
[2] = refractive index (Na D-line) (dimensionless); details: 101.33 kPa, Liquid, Standard Abbe refractometry
[3] = refractive index (Na D-line) (dimensionless); xn = mol fraction of the nth substance listed; details: 101 kPa, Liquid, Standard Abbe refractometry, x2 = 0
[4] = xn = mol fraction of the nth substance listed; details: 101 kPa, Liquid, x2 = 0; for viscosity: Capillary tube (Ostwald / Ubbelohde) method; for mass density: Vibrating tube method

CNCCO [2-(methylamino)ethanol]
Details	mass density, [1] [kg/m3]	refractive index, [2]	viscosity, [1] [mPa·s]
293.15 K	–	1.4393	–
298.15 K	936.18	1.4375	10.51
303.15 K	932.26	1.4356	8.522
308.15 K	–	1.4339	–
313.15 K	924.42	1.4318	5.833
318.15 K	–	1.4298	–
323.15 K	916.48	1.4278	4.177
333.15 K	908.46	–	3.108
343.15 K	900.3	–	2.385

O [water] + CNCCO
Details	mass density, [4] [kg/m3]	refractive index, [3]	viscosity, [4] [mPa·s]
293.15 K	–	1.3331	–
298.15 K	–	1.3326	0.8824
303.15 K	–	1.332	0.8047
308.15 K	–	1.3314	–
313.15 K	992.26	1.3307	0.6596
318.15 K	–	1.3299	–
323.15 K	988.05	1.3291	0.5507
333.15 K	983.19	–	0.4703
343.15 K	977.78	–	0.4074
